The text below walks through data of patent US9421204B2, “Oligomer modified diaromatic substituted compounds” (priority 2010, dated 2016).

The nature of series [1]: Toxicity XTT in CEM-SS cells (cytoprotection assay). The format is cell-based. As to conditions: human, CEM-SS cells, XTT; read-out: CEM-SS TC50. The protocol: Cell Preparation—CEM-SS cells were passaged in T-75 flasks prior to use in the antiviral assay. On the day preceding the assay, the cells were split 1:2 to assure they were in an exponential growth phase at the time of infection. Total cell and viability quantification was performed using a hemocytometer and Trypan Blue dye exclusion. Cell viability was greater than 95% for the cells to be utilized in the assay. The cells were resuspended at 5×10^4 cells per ml in tissue culture medium and added to the drug containing microtiter plates in a volume of 50 μL.
(§1) Plate Format—Each plate contains cell control wells (cells only), virus control wells (cells plus virus), drug toxicity wells (cells plus drug only), drug colorimetric control wells (drug only) as well as experimental wells (drug plus cells plus virus). Samples were tested in triplicate with eleven half-log dilutions per compound.
(§2) Efficacy and Toxicity XTT—Following incubation at 37° C. in a 5% CO2 incubator, the test plates were stained with the tetrazolium dye XTT (2,3-bis(2-methoxy-4-nitro-5-sulfophenyl)-5-[(phenylamino)carbonyl]-2H-tetrazolium hydroxide). XTT-tetrazolium is metabolized by the mitochondrial enzymes of metabolically active cells to a soluble formazan product, allowing rapid quantitative analysis of the inhibition of HIV induced cell killing by anti-HIV test substances. XTT solution was prepared daily as a stock of 1 mg/mL in RPMI1640. Phenazine methosulfate (PMS) solution was prepared at 0.15 mg/mL in PBS and stored in the dark at −20° C. XTT/PMS stock was prepared immediately before use by adding 40 μL of PMS per ml of XTT solution. Fifty microliters of XTT/PMS was added to each well of the plate and the plate was re-incubated for 4 hours at 37° C. Plates were sealed with adhesive plate sealers and shaken gently or inverted several times to mix the soluble fosmazan product and the plate was read spectrophotometrically at 450/650 nm with a Molecular Devices Vmax plate reader.
(§3) Data Analysis—Raw data was collected from the Softmax Pro 4.6 software and imported into a Excel XLFit4 spreadsheet for analysis by four parameter curve fit calculations. Both antiviral activity and toxicity are calculated.
For orientation: Tetrazolium dyes change colour on reduction, which living cells bring about.

The subject of a further series is NL4-3L100I. In words: Anti-HIV cytoprotection assay, drug resistant NL4-3 L100I. In kind it is cell-based. Conditions: HIV-1 strain NL4-3L100I, CEM-SS cells. The protocol: (§4) Cells were prepared as described above. Virus Preparation—The wild type NL4-3 and drug resistant A17 viruses were obtained from the NIH AIDS Research and Reference Reagent Program and stock virus pools were produced in CEM-SS cells. Amino acid substitutes of L100I, Y181C and P23L were introduced by site-directed mutagenesis into pN L4-3 and stock virus pools were produced in CEM-SS cells. A pretitered aliquot of virus was removed from the freezer (−80° C.) and allowed to thaw slowly to room temperature in a biological safety cabinet. Virus was re-suspended and diluted into tissue culture medium such that the amount of virus added to each well in a volume of 50 μL was the amount determined to yield 85 to 95% cell killing at 6 days post-infection.
as §2, with “Plate Format—Each plate contains cell control wells (cells only), virus control wells (cells plus virus), drug toxicity wells (cells plus drug only), drug colorimetric control wells (drug only) as well as experimental wells (drug plus cells plus virus). Samples were tested in triplicate with eleven half-log dilutions per compound. Efficacy” for “Efficacy”, “XTT-tetrazolium was” for “XTT-tetrazolium is”, “C. XTTIPMS” for “C. XTT/PMS”, “soluble formazan” for “soluble fosmazan”
as §3

In the next series the test system is NL4-3P236L. Description: Anti-HIV cytoprotection assay, drug resistant NL4-3 P236L. Conditions: HIV-1 strain NL4-3P236L; for EC50: CEM-SS cells. In kind it is cell-based. On the procedure:
as §4
as §2, with “Plate Format—Each plate contains cell control wells (cells only), virus control wells (cells plus virus), drug toxicity wells (cells plus drug only), drug colorimetric control wells (drug only) as well as experimental wells (drug plus cells plus virus). Samples were tested in triplicate with eleven half-log dilutions per compound. Efficacy” for “Efficacy”, “XTT-tetrazolium was” for “XTT-tetrazolium is”, “C. XTTIPMS” for “C. XTT/PMS”, “soluble formazan” for “soluble fosmazan”
as §3

A further series deals with NL4-3Y181C. Description: Anti-HIV cytoprotection assay, drug resistant NL4-3 Y181C. Conditions: HIV-1 strain NL4-3Y181C; for EC50: CEM-SS cells. The format is cell-based. The protocol:
as §4
as §2, with “Plate Format—Each plate contains cell control wells (cells only), virus control wells (cells plus virus), drug toxicity wells (cells plus drug only), drug colorimetric control wells (drug only) as well as experimental wells (drug plus cells plus virus). Samples were tested in triplicate with eleven half-log dilutions per compound. Efficacy” for “Efficacy”, “XTT-tetrazolium was” for “XTT-tetrazolium is”, “C. XTTIPMS” for “C. XTT/PMS”, “soluble formazan” for “soluble fosmazan”
as §3

Another series deals with A17K103N/Y181C. In words: Anti-HIV cytoprotection assay, drug resistant A17. In kind it is cell-based. Conditions: HIV-1 strain A17K103N/Y181C, CEM-SS cells. On the procedure: (§5) Cells were prepared as described above. Virus Preparation—The wild type NL4-3 and drug resistant A17 viruses were obtained from the NIH AIDS Research and Reference Reagent Program and stock virus pools were produced in CEM-SS cells. Amino acid substitutes of L100I, Y181C and P23L were introduced by site-directed mutagenesis into pN L4-3 and stock virus pools were produced in CEM-SS cells. A pretitered aliquot of virus was removed from the freezer (−80° C.) and allowed to thaw slowly to room temperature in a biological safety cabinet.
as §2, with “Plate Format—Each plate contains cell control wells (cells only), virus control wells (cells plus virus), drug toxicity wells (cells plus drug only), drug colorimetric control wells (drug only) as well as experimental wells (drug plus cells plus virus). Samples were tested in triplicate with eleven half-log dilutions per compound. Efficacy” for “Efficacy”, “XTT-tetrazolium was” for “XTT-tetrazolium is”, “C. XTTIPMS” for “C. XTT/PMS”, “soluble formazan” for “soluble fosmazan”
as §3

A further series relates to HIV-1RF. In words: Anti-HIV-1 cytoprotection assay in CEM-SS cells. In kind it is cell-based. On the procedure: Cell Preparation—CEM-SS cells were passaged in T-75 flasks prior to use in the antiviral assay. On the day preceding the assay, the cells were split 1:2 to assure they were in an exponential growth phase at the time of infection. Total cell and viability quantification was performed using a hemocytometer and Trypan Blue dye exclusion. […] The cells were resuspended at 5×10^4 cells per ml in tissue culture medium and added to the drug containing microtiter plates in a volume of 50 μL.
Virus Preparation—The virus used for the assay was the lymphocyte-tropic virus strain HIV-IRF. The virus was obtained from the NIH AIDS Research and Reference Reagent Program and stock virus pools were produced in CEM-SS cells. A pretitred aliquot of virus was removed from the freezer (−80° C.) and allowed to thaw slowly to room temperature in a biological safety cabinet.
as §1, §2
Anti-HIV-1 Cytopathic Effects Inhibition Assay Evaluations: Eight compounds were evaluated against the RF strain of HIV-1 in CEM-SS cells using a 12 concentration dose response curve.
as §3

The nature of series [2]: Toxicity XTT in CEM-SS cells (drug resistant strain assay). In kind it is cell-based. As to conditions: human, CEM-SS cells, read-out: TC50 (the source's name). The protocol:
as §4
as §2, with “Plate Format—Each plate contains cell control wells (cells only), virus control wells (cells plus virus), drug toxicity wells (cells plus drug only), drug colorimetric control wells (drug only) as well as experimental wells (drug plus cells plus virus). Samples were tested in triplicate with eleven half-log dilutions per compound. Efficacy” for “Efficacy”, “XTT-tetrazolium was” for “XTT-tetrazolium is”, “C. XTTIPMS” for “C. XTT/PMS”, “soluble formazan” for “soluble fosmazan”
as §3

The next series relates to CEM-SS cells. The description is as above. In kind it is cell-based. As to conditions: read-out: TC50 (the source's name). On the procedure:
as §4
as §2, with “Plate Format—Each plate contains cell control wells (cells only), virus control wells (cells plus virus), drug toxicity wells (cells plus drug only), drug colorimetric control wells (drug only) as well as experimental wells (drug plus cells plus virus). Samples were tested in triplicate with eleven half-log dilutions per compound. Efficacy” for “Efficacy”, “XTT-tetrazolium was” for “XTT-tetrazolium is”, “C. XTTIPMS” for “C. XTT/PMS”, “soluble formazan” for “soluble fosmazan”
as §3

In another series the test system is NL4-3. Description: Anti-HIV cytoprotection assay, wild type NL4-3. Conditions: for EC50: HIV-1 strain NL4-3, CEM-SS cells, read-out: EC50. The format is cell-based, HIV-1. The protocol:
as §5
as §2, with “Plate Format—Each plate contains cell control wells (cells only), virus control wells (cells plus virus), drug toxicity wells (cells plus drug only), drug colorimetric control wells (drug only) as well as experimental wells (drug plus cells plus virus). Samples were tested in triplicate with eleven half-log dilutions per compound. Efficacy” for “Efficacy”, “XTT-tetrazolium was” for “XTT-tetrazolium is”, “C. XTTIPMS” for “C. XTT/PMS”, “soluble formazan” for “soluble fosmazan”
as §3

[3] abbreviates: Human immunodeficiency virus 1, CEM-SS.
Setting [4] is: run with HIV-1 strain A17K103N/Y181C.
Setting [5] is: run with HIV-1 strain NL4-3L100I.
Setting [6] is: run with HIV-1 strain NL4-3P236L.
Setting [7] is: run with HIV-1 strain NL4-3Y181C.

“And” between values parts separate entries of the source, which are not always exact repeats. Identical values can stand only once. Like-named read-outs stand apart in the source and are kept apart here.

`Cc1cn([C@H]2C[C@H](N=[N+]=[N-])[C@@H](CO)O2)c(=O)[nH]c1=O` [AZT, reference compound]: the CC50 in [1] is over 1000 nM; in [2] (setting [4]), over 500 nM. The EC50 in the series with NL4-3L100I was determined as 6 nM; in the series on NL4-3L100I (setting [3]) it was 3 nM; with NL4-3Y181C it was 1 nM; with NL4-3Y181C (setting [3]), 2 nM; in the series on A17K103N/Y181C (setting [3]) it was 3 nM; in the series with HIV-1RF (CEM-SS cells, XTT, read-out: CEM-SS/HIV-1RF EC50), 10 nM. Further, the EC50 amounted to 6 nM with HIV-1RF (Human immunodeficiency virus 1, CEM-SS, CEM-SS cells, XTT, read-out: CEM-SS/HIV-1RF EC50) and 6 nM in the series on HIV-1RF (Human immunodeficiency virus 1, CEM-SS, RF strain of HIV-1 in CEM-SS cells, control compound, read-out: EC50). Also, the TI in the series with NL4-3P236L was >71.4 and >50.0.
`CC(C)Nc1cccnc1N1CCN(C(=O)c2cc3cc(NS(C)(=O)=O)ccc3[nH]2)CC1` [Delavirdine, N-[2-({4-[3-(propan-2-ylamino)pyridin-2-yl]piperazin-1-yl}carbonyl)-1H-indol-5-yl]methanesulfonamide, reference compound]: the TI in the series on NL4-3P236L is listed as over 2.0; in the series with NL4-3Y181C it was over 1.7; in the series on NL4-3 (HIV-1 strain NL4-3) it was over 100.0. The EC50 was 500 nM in the series on NL4-3P236L; over 500 nM with NL4-3P236L (setting [3]); 580 nM in the series on NL4-3Y181C; over 500 nM with NL4-3Y181C (setting [3]); over 1000 nM in the series with A17K103N/Y181C; over 500 nM in the series on A17K103N/Y181C (setting [3]). Also, the EC50 came to 10 nM in the series on NL4-3 and 5 nM in the series with NL4-3 (Human immunodeficiency virus 1, NL43, CEM-SS). The CC50 in series [2] (setting [4]) is over 500 nM; in series [2] (run with HIV-1 strain NL4-3), over 500 nM; in [2] (setting [5]), over 500 nM; in series [2] (setting [6]) it was over 500 nM; in series [2] (setting [7]) it was over 500 nM; in the series with CEM-SS cells (setting [4]) it was over 1000 nM. In addition, the CC50 with CEM-SS cells (run with HIV-1 strain NL4-3), in the series with CEM-SS cells (setting [5]), in the series on CEM-SS cells (setting [6]) and with CEM-SS cells (setting [7]) was over 1000 nM in each case.
Take `Cc1ccnc2c1NC(=O)c1cccnc1N2C1CC1` [Nevirapine, reference compound]: the EC50 is over 10000 nM with NL4-3L100I (setting [3]); 280 nM with NL4-3P236L; 300 nM in the series on NL4-3P236L (setting [3]); 8590 nM in the series on NL4-3Y181C; over 10000 nM with NL4-3Y181C (setting [3]); over 10000 nM in the series on A17K103N/Y181C (setting [3]). The TI in the series on NL4-3P236L was >33.3 and >35.7; in the series on NL4-3Y181C, over 1.2. For the same molecule, the CC50 in [2] (setting [4]), in series [2] (run with HIV-1 strain NL4-3), in series [2] (setting [5]), in [2] (setting [6]) and in series [2] (setting [7]) was over 10000 nM each time.
